The source of these data is patent US12310975B2, “Modulators of BCL6 proteolysis and associated methods of use” (Arvinas Operations, Inc., priority 2019, dated 2025).

Assay [1] deals with T1, BCL6 (Homo sapiens (Human), UniProt P41182). Nature of the assay: Immunofluorescence high content imaging of BCL6 degradation in T47D cells. The class given is cell-based. The conditions noted are these: T47D. The essentials: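 Following a 3-day incubation with serially diluted bifunctional compounds (final top 0.1 or 1 μM), T47D cells were PFA-fixed and immunostained for BCL6. Nuclear BCL6 signal was captured on a high-content imager.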

In assay [2] the target is T1, BCL6. The assay is described as follows: BCL6 TR-FRET assay (BCL6-Avitag-Biotin / BCoR-Cy5 peptide). The conditions noted are these: read-out: IC50. The class given is binding. A digest of the protocol:
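After 30 min room-temperature preincubation of compound titrations with 2 nM biotinylated BCL6-Avitag, 100 nM Cy5-labelled BCoR peptide plus 2 nM Eu-streptavidin were added and TR-FRET read 2 h later. HEPES pH 7.5/125 mM NaCl buffer with Triton X, glutathione (or DTT) and BSA.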
Background: Time-resolved FRET reads energy transfer from a long-lived donor to a nearby acceptor.

Some results are limits rather than exact numbers.

By Dmax is commonly meant the greatest extent of degradation seen. Read a high Dmax as a fuller loss of target. Usually IC50 stands for the concentration at which inhibition is half-maximal. As for `CNC(=O)COc1cc2cc(Nc3nc(N4CCN(CC5CC6(C5)CN(c5ccc7c(c5)C(=O)N(C5CCC(=O)NC5=O)C7=O)C6)CC4)ncc3Cl)ccc2n(C(C)C)c1=O` (stereo not drawn) [compound 523, 2-{[6-({5-chloro-2-[4-({2-[2-(2,6-dioxopiperidin-3-yl)-1,3-dioxo-2,3-dihydro-1H-isoindol-5-yl]-2-azaspiro[3.3]heptan-6-yl}methyl)piperazin-1-yl]pyrimidin-4-yl}amino)-2-oxo-1-(propan-2-yl)-1,2-dihydroquinolin-3-yl]oxy}-N-methylacetamide], the Dmax at BCL6 [1] fell in the range of 50 to 70%. In addition, the half-inhibitory concentration (IC50) on BCL6 [2] was under 0.01 µM.

In the case of `CNC(=O)COc1cc2cc(Nc3nc(N4CCN(CC5CN(C6CCN(c7cccc8c7C(=O)N(C7CCC(=O)NC7=O)C8=O)CC6)C5)CC4)ncc3Cl)ccc2n(C(C)C)c1=O` (stereo not drawn) [compound 524, 2-({6-[(5-chloro-2-{4-[(1-{1-[2-(2,6-dioxopiperidin-3-yl)-1,3-dioxo-2,3-dihydro-1H-isoindol-4-yl]piperidin-4-yl}azetidin-3-yl)methyl]piperazin-1-yl}pyrimidin-4-yl)amino]-2-oxo-1-(propan-2-yl)-1,2-dihydroquinolin-3-yl}oxy)-N-methylacetamide], the Dmax at BCL6 [1] was 50 to 70%. For the same compound, the IC50 at BCL6 [2] was under 0.01 µM.

At BCL6 [1], `CNC(=O)COc1cc2cc(Nc3nc(N4CCC(OC5CN(C6CCN(c7cccc8c7C(=O)N(C7CCC(=O)NC7=O)C8=O)CC6)C5)CC4)ncc3Cl)ccc2n(C(C)C)c1=O` (stereo not drawn) [compound 525, 2-({6-[(5-chloro-2-{4-[(1-{1-[2-(2,6-dioxopiperidin-3-yl)-1,3-dioxo-2,3-dihydro-1H-isoindol-4-yl]piperidin-4-yl}azetidin-3-yl)oxy]piperidin-1-yl}pyrimidin-4-yl)amino]-2-oxo-1-(propan-2-yl)-1,2-dihydroquinolin-3-yl}oxy)-N-methylacetamide] came in with a Dmax of 50 to 70%. The IC50 on BCL6 [2] was under 0.01 µM.

`CNC(=O)COc1cc2cc(Nc3nc(N4CCC(OC5CN(C6CCN(c7ccc8c(c7)C(=O)N(C7CCC(=O)NC7=O)C8=O)CC6)C5)CC4)ncc3Cl)ccc2n(C(C)C)c1=O` (stereo not drawn) [compound 526, 2-({6-[(5-chloro-2-{4-[(1-{1-[2-(2,6-dioxopiperidin-3-yl)-1,3-dioxo-2,3-dihydro-1H-isoindol-5-yl]piperidin-4-yl}azetidin-3-yl)oxy]piperidin-1-yl}pyrimidin-4-yl)amino]-2-oxo-1-(propan-2-yl)-1,2-dihydroquinolin-3-yl}oxy)-N-methylacetamide] yielded a Dmax on BCL6 [1] of 50 to 70%. For the same compound, on BCL6 [2], the IC50 was under 0.01 µM.

`CNC(=O)COc1cc2cc(Nc3nc(N4CCC(N5CCC6(CCN(c7cccc8c7C(=O)N(C7CCC(=O)NC7=O)C8=O)CC6)C5)CC4)ncc3Cl)ccc2n(C(C)C)c1=O` (stereo not drawn) [compound 527, 2-[(6-{[5-chloro-2-(4-{8-[2-(2,6-dioxopiperidin-3-yl)-1,3-dioxo-2,3-dihydro-1H-isoindol-4-yl]-2,8-diazaspiro[4.5]decan-2-yl}piperidin-1-yl)pyrimidin-4-yl]amino}-2-oxo-1-(propan-2-yl)-1,2-dihydroquinolin-3-yl)oxy]-N-methylacetamide]: the maximal degradation (Dmax) at BCL6 [1] was 50 to 70%. For the same compound, the IC50 at BCL6 [2] was under 0.01 µM.

`CNC(=O)COc1cc2cc(Nc3nc(N4CCN(CC5CC6(C5)CN(c5cccc7c5C(=O)N(C5CCC(=O)NC5=O)C7=O)C6)CC4)ncc3Cl)ccc2n(C(C)C)c1=O` (stereo not drawn) [compound 529, 2-{[6-({5-chloro-2-[4-({2-[2-(2,6-dioxopiperidin-3-yl)-1,3-dioxo-2,3-dihydro-1H-isoindol-4-yl]-2-azaspiro[3.3]heptan-6-yl}methyl)piperazin-1-yl]pyrimidin-4-yl}amino)-2-oxo-1-(propan-2-yl)-1,2-dihydroquinolin-3-yl]oxy}-N-methylacetamide] showed a maximal degradation (Dmax) at BCL6 [1] of 50 to 70%. Moreover, the half-inhibitory concentration (IC50) at BCL6 [2] is under 0.01 µM.

The compound `CNC(=O)COc1cc2cc(Nc3nc(N4CCC(O[C@H]5C[C@H](N6CCN(c7ccc8c(c7)C(=O)N(C7CCC(=O)NC7=O)C8=O)CC6)C5)CC4)ncc3Cl)ccc2n(C(C)C)c1=O` (stereo partly drawn) [compound 531, 2-({6-[(5-chloro-2-{4-[(1r,3r)-3-{4-[2-(2,6-dioxopiperidin-3-yl)-1,3-dioxo-2,3-dihydro-1H-isoindol-5-yl]piperazin-1-yl}cyclobutoxy]piperidin-1-yl}pyrimidin-4-yl)amino]-2-oxo-1-(propan-2-yl)-1,2-dihydroquinolin-3-yl}oxy)-N-methylacetamide] returned a Dmax at BCL6 [1] of under 50%. The IC50 on BCL6 [2] is under 0.01 µM.

`CNC(=O)COc1cc2cc(Nc3nc(N4CCC5(CCN(CC6CCN(c7cccc8c7C(=O)N(C7CCC(=O)NC7=O)C8=O)CC6)CC5)CC4)ncc3Cl)ccc2n(C(C)C)c1=O` (stereo not drawn) [compound 533, 2-{[6-({5-chloro-2-[9-({1-[2-(2,6-dioxopiperidin-3-yl)-1,3-dioxo-2,3-dihydro-1H-isoindol-4-yl]piperidin-4-yl}methyl)-3,9-diazaspiro[5.5]undecan-3-yl]pyrimidin-4-yl}amino)-2-oxo-1-(propan-2-yl)-1,2-dihydroquinolin-3-yl]oxy}-N-methylacetamide] displayed a Dmax on BCL6 [1] of at least 70%. The IC50 on BCL6 [2] was under 0.01 µM.

Turning to `CNC(=O)COc1cc2cc(Nc3nc(N4CCC(CN5CCC6(CCN(c7ccc8c(c7)C(=O)N(C7CCC(=O)NC7=O)C8=O)C6)C5)CC4)ncc3Cl)ccc2n(C(C)C)c1=O` (stereo not drawn) [compound 534, 2-{[6-({5-chloro-2-[4-({7-[2-(2,6-dioxopiperidin-3-yl)-1,3-dioxo-2,3-dihydro-1H-isoindol-5-yl]-2,7-diazaspiro[4.4]nonan-2-yl}methyl)piperidin-1-yl]pyrimidin-4-yl}amino)-2-oxo-1-(propan-2-yl)-1,2-dihydroquinolin-3-yl]oxy}-N-methylacetamide], the Dmax on BCL6 [1] is at least 70%. Further, the IC50 on BCL6 [2] was under 0.01 µM.

Compound `CNC(=O)COc1cc2cc(Nc3nc(N4CCC(O[C@H]5C[C@H](N6CCC(c7ccc8c(c7)C(=O)N(C7CCC(=O)NC7=O)C8=O)CC6)C5)CC4)ncc3Cl)ccc2n(C)c1=O` (stereo partly drawn) [compound 536, 2-({6-[(5-chloro-2-{4-[(1r,3r)-3-{4-[2-(2,6-dioxopiperidin-3-yl)-1,3-dioxo-2,3-dihydro-1H-isoindol-5-yl]piperidin-1-yl}cyclobutoxy]piperidin-1-yl}pyrimidin-4-yl)amino]-1-methyl-2-oxo-1,2-dihydroquinolin-3-yl}oxy)-N-methylacetamide] displayed a Dmax at BCL6 [1] of at least 70%. For the same compound, the IC50 on BCL6 [2] was under 0.01 µM.

In the case of `CNC(=O)COc1cc2cc(Nc3nc(N4CCN(C[C@H]5C[C@H](N6CCN(c7cccc8c7C(=O)N(C7CCC(=O)NC7=O)C8=O)CC6)C5)CC4)ncc3Cl)ccc2n(C(C)C)c1=O` (stereo partly drawn) [compound 537, 2-[(6-{[5-chloro-2-(4-{[(1r,3r)-3-{4-[2-(2,6-dioxopiperidin-3-yl)-1,3-dioxo-2,3-dihydro-1H-isoindol-4-yl]piperazin-1-yl}cyclobutyl]methyl}piperazin-1-yl)pyrimidin-4-yl]amino}-2-oxo-1-(propan-2-yl)-1,2-dihydroquinolin-3-yl)oxy]-N-methylacetamide], on BCL6 [1], the Dmax was under 50%. At BCL6 [2], the IC50 is under 0.01 µM.

Take `CNC(=O)COc1cc2cc(Nc3nc(N4CCC(CN5CC(N6CCC(c7ccc8c(c7)C(=O)N(C7CCC(=O)NC7=O)C8=O)CC6)C5)CC4)ncc3Cl)ccc2n(C(C)C)c1=O` (stereo not drawn) [compound 538, 2-({6-[(5-chloro-2-{4-[(3-{4-[2-(2,6-dioxopiperidin-3-yl)-1,3-dioxo-2,3-dihydro-1H-isoindol-5-yl]piperidin-1-yl}azetidin-1-yl)methyl]piperidin-1-yl}pyrimidin-4-yl)amino]-2-oxo-1-(propan-2-yl)-1,2-dihydroquinolin-3-yl}oxy)-N-methylacetamide]: the maximal degradation (Dmax) on BCL6 [1] is at least 70%. In addition, at BCL6 [2], the IC50 is under 0.01 µM.

Consider `CNC(=O)COc1cc2cc(Nc3nc(N4CCN(CC5CCC6(CC5)CN(c5c(F)ccc7c5C(=O)N(C5CCC(=O)NC5=O)C7=O)C6)CC4)ncc3Cl)ccc2n(C(C)C)c1=O` (stereo not drawn) [compound 539, 2-{[6-({5-chloro-2-[4-({2-[2-(2,6-dioxopiperidin-3-yl)-5-fluoro-1,3-dioxo-2,3-dihydro-1H-isoindol-4-yl]-2-azaspiro[3.5]nonan-7-yl}methyl)piperazin-1-yl]pyrimidin-4-yl}amino)-2-oxo-1-(propan-2-yl)-1,2-dihydroquinolin-3-yl]oxy}-N-methylacetamide], for which, on BCL6 [1], the Dmax is 50 to 70%. Further, the IC50 on BCL6 [2] is under 0.01 µM.

As for `CNC(=O)COc1cc2cc(Nc3nc(N4CCN(CC5CCC6(CC5)CN(c5cc(F)cc7c5C(=O)N(C5CCC(=O)NC5=O)C7=O)C6)CC4)ncc3Cl)ccc2n(C(C)C)c1=O` (stereo not drawn) [compound 540, 2-{[6-({5-chloro-2-[4-({2-[2-(2,6-dioxopiperidin-3-yl)-6-fluoro-1,3-dioxo-2,3-dihydro-1H-isoindol-4-yl]-2-azaspiro[3.5]nonan-7-yl}methyl)piperazin-1-yl]pyrimidin-4-yl}amino)-2-oxo-1-(propan-2-yl)-1,2-dihydroquinolin-3-yl]oxy}-N-methylacetamide], at BCL6 [1], the Dmax was at least 70%. Further, on BCL6 [2], the IC50 was under 0.01 µM.

Regarding `CNC(=O)COc1cc2cc(Nc3nc(N4CCN(CC5CCC6(CC5)CN(c5ccc(F)c7c5C(=O)N(C5CCC(=O)NC5=O)C7=O)C6)CC4)ncc3Cl)ccc2n(C(C)C)c1=O` (stereo not drawn) [compound 541, 2-{[6-({5-chloro-2-[4-({2-[2-(2,6-dioxopiperidin-3-yl)-7-fluoro-1,3-dioxo-2,3-dihydro-1H-isoindol-4-yl]-2-azaspiro[3.5]nonan-7-yl}methyl)piperazin-1-yl]pyrimidin-4-yl}amino)-2-oxo-1-(propan-2-yl)-1,2-dihydroquinolin-3-yl]oxy}-N-methylacetamide], the Dmax on BCL6 [1] is at least 70%. In addition, the IC50 at BCL6 [2] was under 0.01 µM.
